Experimental data from patent US9999619B2, “Piperidin-4-yl azetidine derivatives as JAK1 inhibitors” (Incyte Corporation, priority 2010, dated 2018).
pIC50: −log10 of the molar value.

Experiments:
Format in all cases: biochemical
Jak2 (a.a. 828-1132) = Jak2 (a.a. 828-1132) (Homo sapiens (Human), UniProt O60674); experiment: In vitro JAK kinase assay (HTRF, phosphorylation of a biotinylated peptide), JAK2; details: measured at 1 mM ATP
Procedure: (§1) Compounds herein were tested for inhibitory activity of JAK targets according to the following in vitro assay described in Park et al., Analytical Biochemistry 1999, 269, 94-104. The catalytic domains of human JAK1 (a.a. 837-1142), Jak2 (a.a. 828-1132) and Jak3 (a.a. 781-1124) with an N-terminal His tag were expressed using baculovirus in insect cells and purified. The catalytic activity of JAK1, JAK2 or JAK3 was assayed by measuring the phosphorylation of a biotinylated peptide. The phosphorylated peptide was detected by homogenous time resolved fluorescence (HTRF). […] Reactions were carried out at room temperature for 1 hr and then stopped with 20 μL 45 mM EDTA, 300 nM SA-APC, 6 nM Eu-Py20 in assay buffer (Perkin Elmer, Boston, Mass.). Binding to the Europium labeled antibody took place for 40 minutes and HTRF signal was measured on a Fusion plate reader (Perkin Elmer, Boston, Mass.).

[1] = target: human JAK1 (a.a. 837-1142) (Homo sapiens, UniProt P23458); experiment: In vitro JAK kinase assay (HTRF, phosphorylation of a biotinylated peptide), JAK1; details: measured at 1 mM ATP
Procedure: as §1

[2] = target: human JAK1 (a.a. 837-1142); experiment: as above; details: ratio of JAK2 IC50 to JAK1 IC50, measured at 1 mM ATP
Procedure: as §1

Chain of Jak2 (a.a. 828-1132) (O60674 828-1132): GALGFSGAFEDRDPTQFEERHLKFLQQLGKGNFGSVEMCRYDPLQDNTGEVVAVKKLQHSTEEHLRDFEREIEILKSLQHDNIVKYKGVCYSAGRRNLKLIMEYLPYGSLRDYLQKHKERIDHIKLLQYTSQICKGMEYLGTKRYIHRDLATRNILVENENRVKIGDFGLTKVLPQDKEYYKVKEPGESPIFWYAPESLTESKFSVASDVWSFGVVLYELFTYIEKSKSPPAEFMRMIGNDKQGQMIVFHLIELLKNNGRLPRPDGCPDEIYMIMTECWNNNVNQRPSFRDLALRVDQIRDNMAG

## COc1cc(C(F)(F)F)sc1C(=O)N1CCC(N2CC(CC#N)(n3cc(-c4ncnc5[nH]ccc45)cn3)C2)CC1 [Example 70, {1-{1-[3-methoxy-5-(trifluoromethyl)-2-thienylcarbonyl]piperidin-4-yl}-3-[4-(7H-pyrrolo[2,3-d]pyrimidin-4-yl)-1H-pyrazol-1-yl]azetidin-3-yl}acetonitrile]
Jak2 (a.a. 828-1132)
  pIC50: ≥ 8.00

## [2H]C1(N2CC(CC#N)(n3cc(-c4ncnc5[nH]ccc45)cn3)C2)CCN(C(=O)c2ccnc(C(F)(F)F)c2F)CC1 [Example 363, {1-{1-[3-Fluoro-2-(trifluoromethyl)isonicotinoyl]-4-deuteropiperidin-4-yl}-3-[4-(7H-pyrrolo[2,3-d]pyrimidin-4-yl)-1H-pyrazol-1-yl]azetidin-3-yl}acetonitrile]
[1]
  pIC50: ≥ 8.30
Jak2 (a.a. 828-1132)
  pIC50: 7.00 to 7.30

## N#CCC1(n2cc(-c3ncnc4[nH]ccc34)cn2)CN(C2CCN(C(=O)OCC3CCCCC3)CC2)C1 [Example 397, cyclohexylmethyl 4-{3-(cyanomethyl)-3-[4-(7H-pyrrolo[2,3-d]pyrimidin-4-yl)-1H-pyrazol-1-yl]azetidin-1-yl}piperidine-1-carboxylate]
Jak2 (a.a. 828-1132)
  pIC50: 7.30 to 8.00

## N#CCC1(n2cc(-c3ncnc4[nH]ccc34)cn2)CN(C2CC3CCC(C2)N3C(=O)c2ccnc(C(F)(F)F)c2)C1 (stereo not shown) [Example 144, (3-[4-(7H-pyrrolo[2,3-d]pyrimidin-4-yl)-1H-pyrazol-1-yl]-1-{8-[2-(trifluoromethyl)isonicotinoyl]-8-azabicyclo[3.2.1]oct-3-yl}azetidin-3-yl)acetonitrile]
[1]
  pIC50: 7.70 to 8.30
Jak2 (a.a. 828-1132)
  pIC50: 7.30 to 8.00

## CC1CC(N2CC(CC#N)(n3cc(-c4ncnc5[nH]ccc45)cn3)C2)CCN1Cc1c(F)cccc1Cl (single isomer, unassigned) [Example 244, {1-[1-(2-chloro-6-fluorobenzyl)-2-methylpiperidin-4-yl]-3-[4-(7H-pyrrolo[2,3-d]pyrimidin-4-yl)-1H-pyrazol-1-yl]azetidin-3-yl}acetonitrile]
[1]
  pIC50: 7.70 to 8.30
Jak2 (a.a. 828-1132)
  pIC50: 7.30 to 8.00

## N#CCC1(n2cc(-c3ncnc4[nH]ccc34)cn2)CN(C2CCN(Cc3ccc(F)cc3F)CC2)C1 [Example 217, {1-[1-(2,4-difluorobenzyl)piperidin-4-yl]-3-[4-(7H-pyrrolo[2,3-d]pyrimidin-4-yl)-1H-pyrazol-1-yl]azetidin-3-yl}acetonitrile]
[2]
  IC50 Ratio JAK2/JAK1: 5.8

## N#CCC1(n2cc(-c3ncnc4[nH]ccc34)cn2)CN(C2CCN(C(=O)c3ccc(-c4nccs4)c(F)c3)CC2)C1 [Example 122, {1-{1-[3-fluoro-4-(1,3-thiazol-2-yl)benzoyl]piperidin-4-yl}-3-[4-(7H-pyrrolo[2,3-d]pyrimidin-4-yl)-1H-pyrazol-1-yl]azetidin-3-yl}acetonitrile]
Jak2 (a.a. 828-1132)
  pIC50: 7.30 to 8.00

## CS(=O)(=O)N1CCC(N2CC(CC#N)(n3cc(-c4ncnc5[nH]ccc45)cn3)C2)CC1 [Example 254, {1-[1-(methylsulfonyl)piperidin-4-yl]-3-[4-(7H-pyrrolo[2,3-d]pyrimidin-4-yl)-1H-pyrazol-1-yl]azetidin-3-yl}acetonitrile]
Jak2 (a.a. 828-1132)
  pIC50: 7.30 to 8.00

## N#CCC1(n2cc(-c3ncnc4[nH]ccc34)cn2)CN(C2CC3CCC(C2)N3C(=O)C2CCC(F)(F)CC2)C1 (stereo not shown) [Example 148, {1-{8-[(4,4-difluorocyclohexyl)carbonyl]-8-azabicyclo[3.2.1]oct-3-yl}-3-[4-(7H-pyrrolo[2,3-d]pyrimidin-4-yl)-1H-pyrazol-1-yl]azetidin-3-yl}acetonitrile]
Jak2 (a.a. 828-1132)
  pIC50: ≥ 8.00

## N#CCC1(n2cc(-c3ncnc4[nH]ccc34)cn2)CN(C2CCN(C(=O)c3ccnc(C(F)(F)F)n3)CC2)C1 [Example 85, [3-[4-(7H-pyrrolo[2,3-d]pyrimidin-4-yl)-1H-pyrazol-1-yl]-1-(1-{[2-(trifluoromethyl)pyrimidin-4-yl]carbonyl}piperidin-4-yl)azetidin-3-yl]acetonitrile]
[1]
  pIC50: 7.70 to 8.30
Jak2 (a.a. 828-1132)
  pIC50: < 7.00

## N#CCC1(n2cc(-c3ncnc4[nH]ccc34)cn2)CN(C2CCN(C(=O)c3ccnc(C(F)(F)F)c3F)CC2)C1 [Example 1, {1-{1-[3-Fluoro-2-(trifluoromethyl)isonicotinoyl]piperidin-4-yl}-3-[4-(7H-pyrrolo[2,3-d]pyrimidin-4-yl)-1H-pyrazol-1-yl]azetidin-3-yl}acetonitrile]
[1]
  pIC50: ≥ 8.30
Jak2 (a.a. 828-1132)
  pIC50: < 7.00

## N#CCC1(n2cc(-c3ncnc4[nH]ccc34)cn2)CN(C2CCN(C(=O)c3cccc(Cl)c3)CC2)C1 [Example 19, {1-[1-(3-chlorobenzoyl)piperidin-4-yl]-3-[4-(7H-pyrrolo[2,3-d]pyrimidin-4-yl)-1H-pyrazol-1-yl]azetidin-3-yl}acetonitrile]
[1]
  pIC50: ≥ 8.30
Jak2 (a.a. 828-1132)
  pIC50: ≥ 8.00

## N#CCC1(n2cc(-c3ncnc4[nH]ccc34)cn2)CN(C2CC3CCC(C2)N3C(=O)C2CCCCC2)C1 (stereo not shown) [Example 147, {1-[8-(cyclohexylcarbonyl)-8-azabicyclo[3.2.1]oct-3-yl]-3-[4-(7H-pyrrolo[2,3-d]pyrimidin-4-yl)-1H-pyrazol-1-yl]azetidin-3-yl}acetonitrile]
[1]
  pIC50: ≥ 8.30
Jak2 (a.a. 828-1132)
  pIC50: ≥ 8.00

## N#CCC1(n2cc(-c3ncnc4[nH]ccc34)cn2)CN(C2CCN(C(=O)c3ccc(-c4cccnc4)cc3F)CC2)C1 [Example 120, {1-[1-(2-fluoro-4-pyridin-3-ylbenzoyl)piperidin-4-yl]-3-[4-(7H-pyrrolo[2,3-d]pyrimidin-4-yl)-1H-pyrazol-1-yl]azetidin-3-yl}acetonitrile]
[1]
  pIC50: ≥ 8.30
Jak2 (a.a. 828-1132)
  pIC50: ≥ 8.00

## N#CCC1(n2cc(-c3ncnc4[nH]ccc34)cn2)CN(C2CCN(C(=O)c3ccc(C#N)c(F)c3)CC2)C1 [Example 66, 4-[(4-{3-(cyanomethyl)-3-[4-(7H-pyrrolo[2,3-d]pyrimidin-4-yl)-1H-pyrazol-1-yl]azetidin-1-yl}piperidin-1-yl)carbonyl]-2-fluorobenzonitrile]
Jak2 (a.a. 828-1132)
  pIC50: 7.00 to 7.30

## [2H]C1([2H])CN(C(=O)c2ccnc(C(F)(F)F)c2F)CC([2H])([2H])C1([2H])N1CC(CC#N)(n2cc(-c3ncnc4[nH]ccc34)cn2)C1 [Example 364, {1-{1-[3-Fluoro-2-(trifluoromethyl)isonicotinoyl]3,3,4,5,5-pentadeuteropiperidin-4-yl}-3-[4-(7H-pyrrolo[2,3-d]pyrimidin-4-yl)-1H-pyrazol-1-yl]azetidin-3-yl}acetonitrile]
[1]
  pIC50: ≥ 8.30
Jak2 (a.a. 828-1132)
  pIC50: 7.00 to 7.30

## CSc1ccc(C(=O)N2CCC(N3CC(CC#N)(n4cc(-c5ncnc6[nH]ccc56)cn4)C3)CC2)cc1F [Example 62, {1-{1-[3-fluoro-4-(methylthio)benzoyl]piperidin-4-yl}-3-[4-(7H-pyrrolo[2,3-d]pyrimidin-4-yl)-1H-pyrazol-1-yl]azetidin-3-yl}acetonitrile]
Jak2 (a.a. 828-1132)
  pIC50: 7.00 to 7.30

## Cc1csc(C(=O)N2CCC(N3CC(CC#N)(n4cc(-c5ncnc6[nH]ccc56)cn4)C3)CC2)c1 [Example 79, {1-{1-[(4-meth1-2-thienyl)carbonyl]piperidin-4-yl}-3-[4-(7H-pyrrolo[2,3-d]pyrimidin-4-yl)-1H-pyrazol-1-yl]azetidin-3-yl}acetonitrile]
[1]
  pIC50: ≥ 8.30
Jak2 (a.a. 828-1132)
  pIC50: ≥ 8.00

## N#CCC1(n2cc(-c3ncnc4[nH]ccc34)cn2)CN(C2CCN(C(=O)Nc3ccc(F)cc3C(F)(F)F)CC2)C1 [Example 154, 4-{3-(Cyanomethyl)-3-[4-(7H-pyrrolo[2,3-d]pyrimidin-4-yl)-1H-pyrazol-1-yl]azetidin-1-yl}-N-[4-fluoro-2-(trifluoromethyl)phenyl]piperidine-1-carboxamide]
[1]
  pIC50: ≥ 8.30
Jak2 (a.a. 828-1132)
  pIC50: 7.30 to 8.00

## N#CCC1(n2cc(-c3ncnc4[nH]ccc34)cn2)CN(C2CCN(S(=O)(=O)C3CC3)CC2)C1 [Example 256, {1-[1-(cyclopropylsulfonyl)piperidin-4-yl]-3-[4-(7H-pyrrolo[2,3-d]pyrimidin-4-yl)-1H-pyrazol-1-yl]azetidin-3-yl}acetonitrile]
Jak2 (a.a. 828-1132)
  pIC50: 7.30 to 8.00

## CC1CC(N2CC(CC#N)(n3cc(-c4ncnc5[nH]ccc45)cn3)C2)CCN1Cc1c(F)cccc1Cl (single isomer, unassigned) [Example 245, {1-[1-(2-chloro-6-fluorobenzyl)-2-methylpiperidin-4-yl]-3-[4-(7H-pyrrolo[2,3-d]pyrimidin-4-yl)-1H-pyrazol-1-yl]azetidin-3-yl}acetonitrile]
[1]
  pIC50: 7.70 to 8.30
Jak2 (a.a. 828-1132)
  pIC50: 7.30 to 8.00

## CCS(=O)(=O)N1CCC(N2CC(CC#N)(n3cc(-c4ncnc5[nH]ccc45)cn3)C2)CC1 [Example 255, {1-[1-(ethylsulfonyl)piperidin-4-yl]-3-[4-(7H-pyrrolo[2,3-d]pyrimidin-4-yl)-1H-pyrazol-1-yl]azetidin-3-yl}acetonitrile]
Jak2 (a.a. 828-1132)
  pIC50: 7.30 to 8.00

## N#CCC1(n2cc(-c3ncnc4[nH]ccc34)cn2)CN(C2CC3CCC(C2)N3C(=O)C2CCCC2)C1 (stereo not shown) [Example 145, {1-[8-(cyclopentylcarbonyl)-8-azabicyclo[3.2.1]oct-3-yl]-3-[4-(7H-pyrrolo[2,3-d]pyrimidin-4-yl)-1H-pyrazol-1-yl]azetidin-3-yl}acetonitrile]
[1]
  pIC50: 7.70 to 8.30
Jak2 (a.a. 828-1132)
  pIC50: 7.30 to 8.00

## Cc1ccc(C#N)c(N2CCC(C(=O)N3CCC(N4CC(CC#N)(n5cc(-c6ncnc7[nH]ccc67)cn5)C4)CC3)CC2)n1 [Example 108, 2-{4-[(4-{3-(cyanomethyl)-3-[4-(7H-pyrrolo[2,3-d]pyrimidin-4-yl)-1H-pyrazol-1-yl]azetidin-1-yl}piperidin-1-yl)carbonyl]piperidin-1-yl}-6-methylnicotinonitrile]
Jak2 (a.a. 828-1132)
  pIC50: 7.30 to 8.00
